The data set in a line: Dynamic vapor sorption (moisture sorption/desorption). The data set is classed as physicochemical. To be noted: for change of solid form post dynamic vapor sorption experiment: after DVS experiment up to 95% RH at 25° C.; for water absorbed (dynamic vapor sorption): up to 95% RH at 25° C. As to the method: Moisture sorption/desorption data were collected on a VTI SGA-100 Vapor Sorption Analyzer. NaCl and PVP were used as calibration standards. Samples were not dried prior to analysis. Sorption and desorption data were collected over a range from 5% to 95% RH at 10% RH increments under a nitrogen purge. The equilibrium criterion used for analysis was less than 0.0100% weight change in 5 minutes with a maximum equilibration time of 3 hours. Weight percentages reported in the data section are relative to the total sample mass introduced prior to equilibration at 5% RH as measured on the instrument.

Molecules are shown by their SMILES.

In the case of `CCCC[C@](C)(CO)Nc1nc(N)nc2cc(F)cnc12` [Compound I Gentisic Acid, (R)-2-((2-amino-7-fluoropyrido[3,2-d]pyrimidin-4-yl)amino)-2-methylhexan-1-ol gentisic acid], the “change of solid form post dynamic vapor sorption experiment” value (from here on “change”) is given as “not have changed forms” and the “water absorbed (dynamic vapor sorption)” value is given as “about 1.1%”.

For `CCCC[C@](C)(CO)Nc1nc(N)nc2cc(F)cnc12` [Compound I Hippuric Acid, (R)-2-((2-amino-7-fluoropyrido[3,2-d]pyrimidin-4-yl)amino)-2-methylhexan-1-ol hippuric acid], the “change” value was “not have changed forms” and the “water absorbed (dynamic vapor sorption)” value was “about 0.68%”.

`CCCC[C@](C)(CO)Nc1nc(N)nc2cc(F)cnc12.O=C(O)CCC(=O)O` [Compound I Succinic Acid, (R)-2-((2-amino-7-fluoropyrido[3,2-d]pyrimidin-4-yl)amino)-2-methylhexan-1-ol succinic acid]: the “change” value is recorded as “not have changed forms” and the “water absorbed (dynamic vapor sorption)” value is given as “about 1.2%”.

The values are drawn from US11396509B2, “Solid forms of a toll-like receptor modulator” (Gilead Sciences, Inc., priority 2019, dated 2022).
